From publication PMC6544370 (Nature, 2019) come the findings set out here.

In experiment [1] the target is T1, STING (Stimulator of Interferon Genes) (Mus musculus, UniProt Q3TBT3).
T1 sequence (Q3TBT3 139-378 limits assumed): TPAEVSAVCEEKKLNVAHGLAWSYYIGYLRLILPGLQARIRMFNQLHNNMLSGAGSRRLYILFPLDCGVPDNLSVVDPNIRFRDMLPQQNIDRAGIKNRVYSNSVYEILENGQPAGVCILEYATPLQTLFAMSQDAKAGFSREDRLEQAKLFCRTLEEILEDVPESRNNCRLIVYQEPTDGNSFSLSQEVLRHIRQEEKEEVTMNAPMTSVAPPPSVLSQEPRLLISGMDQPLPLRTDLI
The experiment is described as follows: native PAGE gel shift. The settings on record: pH 7.5, 60 mM KCl, 5 mM Mg(OAc)2; labelled compound; 4-100 μM protein. It is filed as binding. Background: In EMSA bound probe runs differently from free probe, usually more slowly.

Experiment [2] addresses Ec-CdnD02 (CD-NTase038) (Enterobacter hormaechei, UniProt P0DSP4). Particulars: with GTP; pH 9.4, 5 mM Mg(OAc)2, 37 °C; product cAAG.
In experiment [3] the target is T2, Rm-CdnE (Rhodothermus marinus, UniProt G2SLH8).
T2 sequence (G2SLH8 1-288): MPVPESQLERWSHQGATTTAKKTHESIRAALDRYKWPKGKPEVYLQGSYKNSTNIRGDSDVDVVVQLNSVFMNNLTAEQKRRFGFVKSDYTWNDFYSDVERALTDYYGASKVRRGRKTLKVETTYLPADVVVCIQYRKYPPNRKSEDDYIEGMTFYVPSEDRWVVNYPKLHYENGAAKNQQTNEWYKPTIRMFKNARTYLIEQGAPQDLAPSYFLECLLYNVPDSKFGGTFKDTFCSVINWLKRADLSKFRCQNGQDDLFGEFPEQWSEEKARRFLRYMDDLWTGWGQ
The experiment is described as follows: X-ray crystal structure. Type of experiment: binding. The settings on record: with Upnpp and MgCl2; nonhydrolyzable substrate analogue.

The target in experiment [4] is T3, Em-CdnE (Elizabethkingia meningoseptica, UniProt P0DSP2).
T3 sequence (P0DSP2 1-292): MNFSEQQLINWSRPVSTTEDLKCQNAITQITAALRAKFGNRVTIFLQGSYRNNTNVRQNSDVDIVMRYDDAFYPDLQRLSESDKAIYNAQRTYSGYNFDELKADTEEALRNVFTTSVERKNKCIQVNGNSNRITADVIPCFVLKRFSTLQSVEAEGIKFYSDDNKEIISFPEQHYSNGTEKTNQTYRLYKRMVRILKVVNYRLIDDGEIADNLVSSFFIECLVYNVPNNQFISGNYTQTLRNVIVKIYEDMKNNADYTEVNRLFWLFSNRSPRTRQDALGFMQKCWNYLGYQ
The experiment is described as follows: X-ray crystal structure. Type of experiment: binding.

Ec-CdnD02 (CD-NTase038), sequence (P0DSP4 whole entry): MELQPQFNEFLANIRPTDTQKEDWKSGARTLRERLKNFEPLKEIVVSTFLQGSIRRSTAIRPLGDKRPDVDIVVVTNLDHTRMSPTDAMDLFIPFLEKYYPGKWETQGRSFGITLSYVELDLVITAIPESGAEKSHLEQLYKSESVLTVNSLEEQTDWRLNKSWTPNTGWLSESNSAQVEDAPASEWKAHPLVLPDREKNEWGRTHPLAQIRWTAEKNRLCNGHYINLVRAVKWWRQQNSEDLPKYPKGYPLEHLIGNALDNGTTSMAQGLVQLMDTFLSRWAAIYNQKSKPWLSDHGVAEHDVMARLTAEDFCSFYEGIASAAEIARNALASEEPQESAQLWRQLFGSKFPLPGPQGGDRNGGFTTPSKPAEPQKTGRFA

With `Nc1nc2c(ncn2[C@@H]2O[C@@H]3COP(=O)(O)O[C@H]4[C@@H](O)[C@H](n5cnc6c(N)ncnc65)O[C@@H]4COP(=O)(O)O[C@H]3[C@H]2O)c(=O)[nH]1` [3′3′ cGAMP], in experiment [1], the “native PAGE gel shift” value is recorded as “STING bound to all four cyclic dipurine molecules with high affinity”.
For `Nc1ncnc2c1ncn2[C@@H]1O[C@H](COP(=O)(O)OP(=O)(O)OP(=O)(O)O)[C@@H](O)[C@H]1O` [ATP], the “radiolabelled NTP, silica TLC” value in experiment [2] is “ATP and GTP were necessary and sufficient for product formation”.
For `Nc1ncnc2c1ncn2[C@@H]1O[C@H](COP(=O)(O)CP(=O)(O)OP(=O)(O)O)[C@@H](O)[C@H]1O` [Apcpp], the X-ray crystal structure result in experiment [3] was “structure of Rm-CdnE in complex with nonhydrolyzable ATP and UTP”; in experiment [4] (with GTP and Mg2+, nonhydrolyzable substrate analogue) it was “Crystal structure of Em-CdnE in complex with GTP and nonhydrolyzable ATP”.
As to `Nc1nc2c(ncn2[C@@H]2O[C@H](COP(=O)(O)OP(=O)(O)OP(=O)(O)O)[C@@H](O)[C@H]2O)c(=O)[nH]1` [GTP], in experiment [4] (with Apcpp and Mg2+), the X-ray crystal structure result is “Crystal structure of Em-CdnE in complex with GTP and nonhydrolyzable ATP”.
Regarding `Nc1nc2c(ncn2[C@@H]2O[C@@H]3COP(=O)(O)O[C@H]4[C@@H](O)[C@H](n5cnc6c(=O)[nH]c(N)nc65)O[C@@H]4COP(=O)(O)O[C@H]3[C@H]2O)c(=O)[nH]1` [c-di-GMP], the “native PAGE gel shift” value in experiment [1] is recorded as “STING bound to all four cyclic dipurine molecules with high affinity”.
